Assay results taken from PubChem BioAssay AID1963445 (Molecular Pharmacology Branch, DTP, NCI, 2024).

System: MCF7 complex spheroid growth, % test/control
Experiment: Anticancer human tumor MCF7 cell line growth inhibition [Asc];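 note: spheroids exposed to compounds for 7 days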;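 for viability, T/C: 100% = DMSO vehicle control wells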
Conditions: for IC50: curve of first compound; for viability, T/C: stronger effect = lower value; active = viability on the fitted dose curve at most 10% of control; inactive = the rest
Method in brief: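 Tumor cells were grown as multicellular spheroids with stromal HUVEC and mesenchymal stem cells and treated singly or in combination. Concentrations fell in half-log steps from the clinical Cmax, or from 10 microM where none was known.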

Cn1ncnc1[C@H]1c2n[nH]c(=O)c3cc(F)cc(c23)N[C@@H]1c1ccc(F)cc1 + CNC(C)C(=O)NC1CN(S(=O)(=O)c2cccc(S(=O)(=O)N3CCC4CCC(C(=O)NC(c5ccccc5)c5ccccc5)N4C(=O)C(NC(=O)C(C)NC)C3)c2)CCC2CCC(C(=O)NC(c3ccccc3)c3ccccc3)N2C1=O
inactive: viability, T/C (second compound 0.00316 µM, first compound 0.000316 µM) 13.7% | viability, T/C (second compound 0.00316 µM, first compound 0.001 µM) 11.2% | viability, T/C (second compound 0.00316 µM, first compound 0.00316 µM) 11.4% | viability, T/C (second compound 0.00316 µM, first compound 0.01 µM) 13.2% | viability, T/C (second compound 0.00316 µM, first compound 0.0316 µM) 12.5% | viability, T/C (second compound 0.00316 µM, first compound 0.1 µM) 10.1% | viability, T/C (second compound 0.01 µM, first compound 0.000316 µM) 12.8% | viability, T/C (second compound 0.01 µM, first compound 0.001 µM) 12.4% | viability, T/C (second compound 0.01 µM, first compound 0.00316 µM) 14.8% | viability, T/C (second compound 0.01 µM, first compound 0.01 µM) 12.8% | viability, T/C (second compound 0.01 µM, first compound 0.0316 µM) 12.4% | viability, T/C (second compound 0.01 µM, first compound 0.1 µM) 12.7% | viability, T/C (second compound 0.0316 µM, first compound 0.000316 µM) 10.1% | viability, T/C (second compound 0.0316 µM, first compound 0.001 µM) 10.7% | viability, T/C (second compound 0.0316 µM, first compound 0.00316 µM) 12.2% | viability, T/C (second compound 0.0316 µM, first compound 0.01 µM) 9.67% | viability, T/C (second compound 0.0316 µM, first compound 0.0316 µM) 9.98% | viability, T/C (second compound 0.0316 µM, first compound 0.1 µM) 12.2% | viability, T/C (second compound 0.1 µM, first compound 0.000316 µM) 11.1% | viability, T/C (second compound 0.1 µM, first compound 0.001 µM) 14.1% | viability, T/C (second compound 0.1 µM, first compound 0.00316 µM) 11.7% | viability, T/C (second compound 0.1 µM, first compound 0.01 µM) 11.5% | viability, T/C (second compound 0.1 µM, first compound 0.0316 µM) 10.3% | viability, T/C (second compound 0.1 µM, first compound 0.1 µM) 11.4% | viability, T/C (second compound 0.316 µM, first compound 0.000316 µM) 10.9% | viability, T/C (second compound 0.316 µM, first compound 0.001 µM) 10.8% | viability, T/C (second compound 0.316 µM, first compound 0.00316 µM) 13% | viability, T/C (second compound 0.316 µM, first compound 0.01 µM) 11.1% | viability, T/C (second compound 0.316 µM, first compound 0.0316 µM) 11.9% | viability, T/C (second compound 0.316 µM, first compound 0.1 µM) 12.8% | viability, T/C (second compound 1 µM, first compound 0.000316 µM) 14.7% | viability, T/C (second compound 1 µM, first compound 0.001 µM) 13.5% | viability, T/C (second compound 1 µM, first compound 0.00316 µM) 12.3% | viability, T/C (second compound 1 µM, first compound 0.01 µM) 12.8% | viability, T/C (second compound 1 µM, first compound 0.0316 µM) 9.82% | viability, T/C (second compound 1 µM, first compound 0.1 µM) 13.9%
< 0.316 nM: IC50 (second compound 0.00316 µM) | IC50 (second compound 0.01 µM) | IC50 (second compound 0.0316 µM) | IC50 (second compound 0.1 µM) | IC50 (second compound 0.316 µM) | IC50 (second compound 1 µM)

CCN1CCN(Cc2ccc(Nc3ncc(F)c(-c4cc(F)c5nc(C)n(C(C)C)c5c4)n3)nc2)CC1 + CCN1C(C(=O)NC23CCC(C(=O)O)(CC2)CC3)C(c2cccc(Cl)c2F)C2(C(=O)Nc3cc(Cl)ccc32)C12CCCCC2
> 1000 nM: IC50 (second compound 0.00949 µM) | IC50 (second compound 0.03 µM)
< 3.16 nM: IC50 (second compound 0.0949 µM) | IC50 (second compound 0.3 µM) | IC50 (second compound 0.949 µM) | IC50 (second compound 3 µM)
inactive: viability, T/C (second compound 0.00949 µM, first compound 0.00316 µM) 99% | viability, T/C (second compound 0.00949 µM, first compound 0.01 µM) 112% | viability, T/C (second compound 0.00949 µM, first compound 0.0316 µM) 90.4% | viability, T/C (second compound 0.00949 µM, first compound 0.1 µM) 92.4% | viability, T/C (second compound 0.00949 µM, first compound 0.316 µM) 85.6% | viability, T/C (second compound 0.00949 µM, first compound 1 µM) 71.7% | viability, T/C (second compound 0.03 µM, first compound 0.00316 µM) 120% | viability, T/C (second compound 0.03 µM, first compound 0.01 µM) 99.9% | viability, T/C (second compound 0.03 µM, first compound 0.0316 µM) 88.2% | viability, T/C (second compound 0.03 µM, first compound 0.1 µM) 63.7% | viability, T/C (second compound 0.03 µM, first compound 0.316 µM) 59% | viability, T/C (second compound 0.03 µM, first compound 1 µM) 66.1% | viability, T/C (second compound 0.0949 µM, first compound 0.00316 µM) 53.9% | viability, T/C (second compound 0.0949 µM, first compound 0.01 µM) 45.3% | viability, T/C (second compound 0.0949 µM, first compound 0.0316 µM) 41.8% | viability, T/C (second compound 0.0949 µM, first compound 0.1 µM) 42.9% | viability, T/C (second compound 0.0949 µM, first compound 0.316 µM) 40.3% | viability, T/C (second compound 0.0949 µM, first compound 1 µM) 47.1% | viability, T/C (second compound 0.3 µM, first compound 0.00316 µM) 31.8% | viability, T/C (second compound 0.3 µM, first compound 0.01 µM) 30.2% | viability, T/C (second compound 0.3 µM, first compound 0.0316 µM) 27.7% | viability, T/C (second compound 0.3 µM, first compound 0.1 µM) 30.9% | viability, T/C (second compound 0.3 µM, first compound 0.316 µM) 34.5% | viability, T/C (second compound 0.3 µM, first compound 1 µM) 40.2% | viability, T/C (second compound 0.949 µM, first compound 0.00316 µM) 20.6% | viability, T/C (second compound 0.949 µM, first compound 0.01 µM) 17.6% | viability, T/C (second compound 0.949 µM, first compound 0.0316 µM) 20.5% | viability, T/C (second compound 0.949 µM, first compound 0.1 µM) 21.5% | viability, T/C (second compound 0.949 µM, first compound 0.316 µM) 24.9% | viability, T/C (second compound 0.949 µM, first compound 1 µM) 20% | viability, T/C (second compound 3 µM, first compound 0.00316 µM) 13.1% | viability, T/C (second compound 3 µM, first compound 0.01 µM) 14% | viability, T/C (second compound 3 µM, first compound 0.0316 µM) 14.8% | viability, T/C (second compound 3 µM, first compound 0.1 µM) 14.6% | viability, T/C (second compound 3 µM, first compound 0.316 µM) 12.7% | viability, T/C (second compound 3 µM, first compound 1 µM) 13.4%

Cc1nc(N2CCC3(CC2)COC(C)C3N)c(CO)nc1Sc1ccnc(N)c1Cl (stereo unspecified) + Cc1c(S(C)(=O)=O)c(-c2cc(F)cc(N3CCN(c4ccc(NS(=O)(=O)c5ccc(NC(CCN6CCC(C(=O)OCCCP(=O)(O)O)CC6)CSc6ccccc6)c(S(=O)(=O)C(F)(F)F)c5)cc4)CC3)c2)c(-c2ccc(Cl)cc2)n1C(C)C
668 nM: IC50 (second compound 3.16 µM)
789 nM: IC50 (second compound 10 µM)
534 nM: IC50 (second compound 1 µM)
736 nM: IC50 (second compound 0.0316 µM)
787 nM: IC50 (second compound 0.1 µM)
inactive: viability, T/C (second compound 0.0316 µM, first compound 0.00949 µM) 91.3% | viability, T/C (second compound 0.0316 µM, first compound 0.03 µM) 92.1% | viability, T/C (second compound 0.0316 µM, first compound 0.0949 µM) 90% | viability, T/C (second compound 0.0316 µM, first compound 0.3 µM) 88.8% | viability, T/C (second compound 0.0316 µM, first compound 0.949 µM) 39.1% | viability, T/C (second compound 0.0316 µM, first compound 3 µM) 14.7% | viability, T/C (second compound 0.1 µM, first compound 0.00949 µM) 90.6% | viability, T/C (second compound 0.1 µM, first compound 0.03 µM) 79.7% | viability, T/C (second compound 0.1 µM, first compound 0.0949 µM) 73.7% | viability, T/C (second compound 0.1 µM, first compound 0.3 µM) 80% | viability, T/C (second compound 0.1 µM, first compound 0.949 µM) 44.2% | viability, T/C (second compound 0.1 µM, first compound 3 µM) 14.9% | viability, T/C (second compound 0.316 µM, first compound 0.00949 µM) 98.3% | viability, T/C (second compound 0.316 µM, first compound 0.03 µM) 84.2% | viability, T/C (second compound 0.316 µM, first compound 0.0949 µM) 75.2% | viability, T/C (second compound 0.316 µM, first compound 0.3 µM) 72.8% | viability, T/C (second compound 0.316 µM, first compound 0.949 µM) 19.7% | viability, T/C (second compound 0.316 µM, first compound 3 µM) 15.5% | viability, T/C (second compound 1 µM, first compound 0.00949 µM) 80.5% | viability, T/C (second compound 1 µM, first compound 0.03 µM) 84.6% | viability, T/C (second compound 1 µM, first compound 0.0949 µM) 85.7% | viability, T/C (second compound 1 µM, first compound 0.3 µM) 81.2% | viability, T/C (second compound 1 µM, first compound 0.949 µM) 18.9% | viability, T/C (second compound 1 µM, first compound 3 µM) 15.3% | viability, T/C (second compound 3.16 µM, first compound 0.00949 µM) 98.3% | viability, T/C (second compound 3.16 µM, first compound 0.03 µM) 88.4% | viability, T/C (second compound 3.16 µM, first compound 0.0949 µM) 89.5% | viability, T/C (second compound 3.16 µM, first compound 0.3 µM) 80.6% | viability, T/C (second compound 3.16 µM, first compound 0.949 µM) 36.6% | viability, T/C (second compound 3.16 µM, first compound 3 µM) 20.5% | viability, T/C (second compound 10 µM, first compound 0.00949 µM) 247% | viability, T/C (second compound 10 µM, first compound 0.03 µM) 221% | viability, T/C (second compound 10 µM, first compound 0.0949 µM) 202% | viability, T/C (second compound 10 µM, first compound 0.3 µM) 176% | viability, T/C (second compound 10 µM, first compound 0.949 µM) 26% | viability, T/C (second compound 10 µM, first compound 3 µM) 26%
491 nM: IC50 (second compound 0.316 µM)
